Results published in patent US20010025059A1, “Composition and method for treating non-bacterial prostatitis” (priority 2000, published 2001).

Columns and labels:
[1] = test system: non-bacterial prostatitis; assay: Example II: double blind study, 30 patients without positive bacterial cultures localized to the prostatic fluid; assay type: in vivo, human
Description: A double blind study using 30 patients without positive bacterial cultures localized to the prostatic fluid were enrolled in a double blind study. Seventeen of the patients received a composition comprised of quercetin in amount of 500 milligrams, bromelain in an amount of 10 milligrams, and papain in an amount of 10 milligrams as the active ingredients thereof. After a randomized study was completed, an additional fifteen patients were treated in an open label study with […]. […] The mean symptom score improved from 21.0 to 13.1 in the group receiving quercetin, but from 20.2 to 18.8 in the placebo group. This represented an improvement of 35%. In those patients which received only the quercetin, without the papain and bromelain, with obtainable extra prostatic secretions, the white blood cell count in the prostatic fluid decreased from 16.8 to 5.3, versus a decrease from 13.1 to 8.3 in the placebo patients.

[2] = Tests of bioavailability / transmural intestinal absorption; assay type: in vivo; settings: quercetin alone; transmural intestinal absorption relatively low

With O=c1c(O)c(-c2ccc(O)c(O)c2)oc2cc(O)cc(O)c12 [quercetin] the “mean symptom score, after treatment” value ([1]; end of study) was 13.1, the “improvement of mean symptom score” value ([1]; human, in vivo) was 35% and the “white blood cell count in the prostatic fluid, after treatment” value ([1]; patients with obtainable prostatic secretions, end of study) was 5.3. For the same molecule, the “white blood cell count in the prostatic fluid, before treatment” value ([1]; patients with obtainable prostatic secretions, starting value) was 16.8, the “mean symptom score, before treatment” value ([1]; starting value of the group) was 21.0 and the bioavailability [2] was “does not have a high bioavailability”.
